Laboratory results: PubChem BioAssay AID248 (DTP/NCI, 2004)
Several values for one entry are separate records, joined by “and”; a condition that tells them apart may be missing. Identical values can stand only once. Inconclusive results and toxic doses are left out. No stated cut-off is given here; in the data, active means T/C of 150% or more; inactive means T/C below 125%.

Tested on: L1210 leukemia ip in BDF1 mice, survival T/C
Experiment: NCI In Vivo Anticancer Drug Screen. Data for tumor model L1210 Leukemia (intraperitoneal) in B6D2F1 (BDF1) mice
Conditions: endpoint: mean survival time, higher = longer survival
Procedure, shortened: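 Ratio derived from survival: compound-dosed mice over vehicle-dosed mice, all bearing a transplantable tumor.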

[1] = dose: 50.0 mg/kg/injection, schedule: Q01DX009 (ip), vehicle: saline
[2] = dose: 100.0 mg/kg/injection, schedule: Q01DX001 (ip), vehicle: saline
[3] = dose: 100.0 mg/kg/injection, schedule: Q04DX003 (ip), vehicle: saline with Tween-80
[4] = dose: 200.0 mg/kg/injection, schedule: Q04DX003 (ip), vehicle: saline with Tween-80
[5] = dose: 400.0 mg/kg/injection, schedule: Q04DX003 (ip), vehicle: saline with Tween-80
[6] = dose: 200.0 mg/kg/injection, schedule: Q01DX001 (ip), vehicle: saline
[7] = dose: 100.0 mg/kg/injection, schedule: Q01DX009 (ip), vehicle: saline with Tween-80
[8] = dose: 200.0 mg/kg/injection, schedule: Q01DX009 (ip), vehicle: saline with Tween-80
[9] = dose: 400.0 mg/kg/injection, schedule: Q01DX009 (ip), vehicle: saline with Tween-80
[10] = dose: 75.0 mg/kg/injection, schedule: Q01DX001 (ip), vehicle: saline
[11] = dose: 150.0 mg/kg/injection, schedule: Q01DX001 (ip), vehicle: saline
[12] = dose: 100.0 mg/kg/injection, schedule: Q04DX003 (ip), vehicle: saline
[13] = dose: 200.0 mg/kg/injection, schedule: Q04DX003 (ip), vehicle: saline
[14] = dose: 400.0 mg/kg/injection, schedule: Q04DX003 (ip), vehicle: saline
[15] = dose: 100.0 mg/kg/injection, schedule: Q04DX003 (ip), vehicle: Klucel (hydroxypropylcellulose) (HPC)
[16] = dose: 200.0 mg/kg/injection, schedule: Q04DX003 (ip), vehicle: Klucel (hydroxypropylcellulose) (HPC)
[17] = dose: 100.0 mg/kg/injection, schedule: Q01DX009 (ip), vehicle: Klucel (hydroxypropylcellulose) (HPC)
[18] = dose: 50.0 mg/kg/injection, schedule: Q01DX009 (ip), vehicle: saline with Tween-80

Measured: T/C

S=C(Nc1ccccc1)N1CCCCC1
inactive: dose: 50.0 mg/kg/injection, schedule: Q01DX001 (ip), vehicle: carboxymethylcellulose (CMC) 97 % of control | dose: 100.0 mg/kg/injection, schedule: Q01DX001 (ip), vehicle: carboxymethylcellulose (CMC) 100 % of control | dose: 200.0 mg/kg/injection, schedule: Q01DX001 (ip), vehicle: carboxymethylcellulose (CMC) 97 % of control | dose: 400.0 mg/kg/injection, schedule: Q01DX001 (ip), vehicle: carboxymethylcellulose (CMC) 103 % of control

NNC(=O)CCCc1ccccc1
inactive: dose: 25.0 mg/kg/injection, schedule: Q01DX009 (ip), vehicle: saline 97 % of control | [1] 103 % of control | [2] 105 % of control

C[C@]12CC[C@H](OC(=O)Cc3ccc(N(CCCl)CCCl)cc3)CC1=CC[C@@H]1[C@@H]2CC[C@]2(C)C(=O)CC[C@@H]12
inactive: [3] 88 % of control | [4] 88 % of control | [5] 88 % of control

O=c1cc(NCc2ccccc2[N+](=O)[O-])[nH]c(=O)[nH]1
inactive: [2] 95 % of control | [6] 100 % of control | dose: 400.0 mg/kg/injection, schedule: Q01DX001 (ip), vehicle: saline 98 % of control

CC(=O)Nc1nc2ncc(C=Nc3cncnc3)nc2c(=O)[nH]1
inactive: dose: 100.0 mg/kg/injection, schedule: Q01DX001 (ip), vehicle: alkali diluted with saline 108 % of control | dose: 200.0 mg/kg/injection, schedule: Q01DX001 (ip), vehicle: alkali diluted with saline 94 % of control | dose: 400.0 mg/kg/injection, schedule: Q01DX001 (ip), vehicle: alkali diluted with saline 92 % of control

Cc1[nH]c2ccc(N(C)C)cc2c(=O)c1Cc1c(C)[nH]c2ccc(N(C)C)cc2c1=O
inactive: [7] 94 % of control | [8] 95 % of control | [9] 92 % of control

O=[N+]([O-])c1ccc(SC2=NCCCN2)c([N+](=O)[O-])c1
inactive: dose: 12.5 mg/kg/injection, schedule: Q04DX002 (ip), vehicle: Klucel (hydroxypropylcellulose) (HPC) 106 % of control | dose: 25.0 mg/kg/injection, schedule: Q04DX002 (ip), vehicle: Klucel (hydroxypropylcellulose) (HPC) 95 % of control

O=C(Nc1ccc(C2=NCCO2)cc1)c1ccc(C(=O)Nc2ccc(C3=NCCO3)cc2)cc1
inactive: dose: 15.0 mg/kg/injection, schedule: Q01DX Z (ip), vehicle: carboxymethylcellulose (CMC) 105 % of control | dose: 30.0 mg/kg/injection, schedule: Q01DX Z (ip), vehicle: carboxymethylcellulose (CMC) 96 % of control | dose: 60.0 mg/kg/injection, schedule: Q01DX Z (ip), vehicle: carboxymethylcellulose (CMC) 91 % of control | dose: 120.0 mg/kg/injection, schedule: Q01DX Z (ip), vehicle: carboxymethylcellulose (CMC) 96 % of control

O=NN(CCCl)C(=O)Nc1cc2c3ccccc3ccc2c2ccccc12
inactive: dose: 177.0 mg/kg/injection, schedule: Q01DX009 (ip), vehicle: carboxymethylcellulose (CMC) 123 % of control

CCC(O)C[As](=O)(O)c1ccc(Cl)cc1 (stereo not drawn)
inactive: dose: 1.56 mg/kg/injection, schedule: Q01DX009 (ip), vehicle: saline with Tween-80 97 % of control

Oc1ccc2ccccc2c1N=Nc1ccc(N=Nc2ccccc2)cc1
inactive: [7] 102 % of control | [8] 106 % of control | [9] 102 % of control

CNC(=O)Oc1cccc(N)c1
inactive: [10] 109 % of control | [11] 114 % of control

CC(=O)CC(=O)NCc1cccc(C)n1
inactive: [12] 114 % of control | [13] 98 % of control | [14] 103 % of control

CCOP(=O)(CCl)NC12CC3CC(CC(C3)C1)C2 (stereo not drawn)
inactive: [15] 96 % of control | [16] 100 % of control

CCCCNC(=S)N(CCCC)CCCC
inactive: [12] 96 % of control | [13] 103 % of control | [14] 96 % of control

Nc1nccnc1N
inactive: [1] 103 % of control | [2] 102 % of control | dose: 100.0 mg/kg/injection, schedule: Q01DX009 (ip), vehicle: saline 105 % of control | [6] 96 % of control

BrC[P+](c1ccccc1)(c1ccccc1)c1ccccc1
inactive: dose: 3.12 mg/kg/injection, schedule: Q04DX002 (ip), vehicle: saline 108 % of control | dose: 6.25 mg/kg/injection, schedule: Q04DX002 (ip), vehicle: saline 104 % of control | dose: 12.5 mg/kg/injection, schedule: Q04DX002 (ip), vehicle: saline 105 % of control and 112 % of control

O=C(O)c1cc(Cl)cc2c1-c1ccc(Cl)cc1C2Br (stereo not drawn)
inactive: dose: 18.7 mg/kg/injection, schedule: Q01DX009 (ip), vehicle: carboxymethylcellulose (CMC) 96 % of control | dose: 75.0 mg/kg/injection, schedule: Q01DX001 (ip), vehicle: carboxymethylcellulose (CMC) 98 % of control | dose: 150.0 mg/kg/injection, schedule: Q01DX001 (ip), vehicle: carboxymethylcellulose (CMC) 91 % of control

COc1cc(CCl)cc(OC)c1OC
inactive: [17] 95 % of control | [15] 93 % of control | dose: 200.0 mg/kg/injection, schedule: Q01DX009 (ip), vehicle: Klucel (hydroxypropylcellulose) (HPC) 90 % of control | [16] 95 % of control | dose: 400.0 mg/kg/injection, schedule: Q01DX009 (ip), vehicle: Klucel (hydroxypropylcellulose) (HPC) 88 % of control | dose: 400.0 mg/kg/injection, schedule: Q04DX003 (ip), vehicle: Klucel (hydroxypropylcellulose) (HPC) 97 % of control

CC(C)CSC(C)C
inactive: [18] 98 % of control | [7] 96 % of control | [3] 107 % of control | [8] 91 % of control | [4] 105 % of control | [5] 87 % of control

CC(=O)NC(CCC(N)=O)C(=O)O (stereo not drawn)
inactive: dose: 100.0 mg/kg/injection, schedule: Q04DX002 (ip), vehicle: saline 99 % of control | dose: 200.0 mg/kg/injection, schedule: Q04DX002 (ip), vehicle: saline 89 % of control | dose: 400.0 mg/kg/injection, schedule: Q04DX002 (ip), vehicle: saline 96 % of control

CC1(C)N=C(N)N=C(N)N1CCCOc1ccc(NC(=O)Nc2cccc(S(=O)(=O)F)c2)cc1
inactive: dose: 25.0 mg/kg/injection, schedule: Q01DX001 (ip), vehicle: saline with Tween-80 102 % of control | dose: 50.0 mg/kg/injection, schedule: Q01DX001 (ip), vehicle: saline with Tween-80 100 % of control

CC(C)(C)C=O
inactive: [12] 102 % of control | [13] 96 % of control | [14] 100 % of control

NS(=O)(=O)c1cccc([N+](=O)[O-])c1
inactive: dose: 20.0 mg/kg/injection, schedule: Q04DX003 (ip), vehicle: Klucel (hydroxypropylcellulose) (HPC) 104 % of control | dose: 25.0 mg/kg/injection, schedule: Q01DX009 (ip), vehicle: Klucel (hydroxypropylcellulose) (HPC) 107 % of control | dose: 40.0 mg/kg/injection, schedule: Q04DX003 (ip), vehicle: Klucel (hydroxypropylcellulose) (HPC) 98 % of control | dose: 50.0 mg/kg/injection, schedule: Q01DX009 (ip), vehicle: Klucel (hydroxypropylcellulose) (HPC) 100 % of control | dose: 80.0 mg/kg/injection, schedule: Q04DX003 (ip), vehicle: Klucel (hydroxypropylcellulose) (HPC) 107 % of control | [17] 96 % of control | [15] 96 % of control

CCOC(=O)Cc1cc(=O)c2cc(OC)ccc2[nH]1
inactive: [10] 107 % of control | dose: 75.0 mg/kg/injection, schedule: Q04DX003 (ip), vehicle: saline 105 % of control | [11] 91 % of control | dose: 150.0 mg/kg/injection, schedule: Q04DX003 (ip), vehicle: saline 100 % of control | dose: 300.0 mg/kg/injection, schedule: Q01DX001 (ip), vehicle: saline 94 % of control | dose: 300.0 mg/kg/injection, schedule: Q04DX003 (ip), vehicle: saline 103 % of control

CCOC(=O)C(C(=O)OCC)C1CCCC(=O)C1 (stereo not drawn)
inactive: [18] 92 % of control | [7] 96 % of control | [8] 92 % of control

O=[N+]([O-])c1ccc(O)cc1
inactive: dose: 12.5 mg/kg/injection, schedule: Q04DX003 (ip), vehicle: saline + alcohol 103 % of control | dose: 25.0 mg/kg/injection, schedule: Q04DX003 (ip), vehicle: saline + alcohol 100 % of control | dose: 50.0 mg/kg/injection, schedule: Q04DX003 (ip), vehicle: saline + alcohol 108 % of control | [2] 113 % of control | dose: 100.0 mg/kg/injection, schedule: Q04DX002 (ip), vehicle: saline with Tween-80 102 % of control | [6] 101 % of control | dose: 200.0 mg/kg/injection, schedule: Q04DX002 (ip), vehicle: saline with Tween-80 91 % of control
